{
  "source": "patent US12202790B2",
  "about": "“Sulfonamide derivatives having selective Nox inhibiting activity” (GLUCOX BIOTECH AB, priority 2018, dated 2025)",
  "format_in_all_cases": "cell-based",
  "key": {"[1]": {"test_system": "Nox1, Nox2, Nox3 and Nox5", "assay": "Activity on Nox1, Nox2, Nox3 and Nox5", "method": "Reactive oxygen produced in whole cells or in membrane preparation of Nox1, Nox3, Nox4, Nox5 and xanthine oxidase and glucose oxidase were determined using Amplex Red as detection probe of formed H2O2. Amplex Red (10-acetyl-3,7-dihydroxyphenoxazine) in combination with HRP and co-factors reacts with H2O2 in a 1:1 stoichiometry to form a highly fluorescent resorufin excitated at 544 nm producing emission at 590 nm.\nAdherent cells (CHO, HEK) were collected by trypsinization, centrifuged, washed with HBSS, counted, and resuspended in HBSS. Cells were seeded in 96-well black flat bottom plates at a density of 50,000-100,000 cells/well. All compounds were dissolved in DMSO and concentrations ranging from 0.003 to 200 μM were tested in Nox cellular assays with a final concentration of DMSO of 1%. Cells were incubated at 37° C. with the compounds for 30 minutes before measurement. Cells expressing Nox1 and Nox2 were activated with the PKC activator PMA (0.1 μM). Nox5 was activated with the Ca2+ ionophore ionomycin (1 μM) and further enforced with PMA. The CJ HEK 293 cells overexpressed Nox4 constitutively. In the HTS screen HEK 293 TRex was used and tetracycline ([…]) was added 18 h before measurement to induce Nox4 expression. Production of hydrogen peroxide by Nox in intact cells was measured using Amplex Red fluorescence as described by Jaquet V, et al., Br J Pharmacol 2011; 164:507-520. […] Fluorescence was read in a fluorescence plate reader at 37° C. every minute between 30-60 minutes.\nCompounds of the invention were tested for selectivity against Nox2 in isolated neutrophils from whole blood (human), as previously described (Anvari E, et al., vide supra). Levels of ROS from PMA stimulated primary human neutrophils were measured using isoluminol-dependent chemiluminescence. […] The dye is excited by ROS and the light emitted when the excited molecules return to the ground state, relative to the amount of released ROS, is measured. […] Luminescence was detected using FluoStar Optima (BMG, Labtech). […]"}, "[2]": {"target": "Nox4 expressing HEK293 cells (Homo sapiens (Human), UniProt Q9NPH5)", "sequence (Q9NPH5 whole entry)": "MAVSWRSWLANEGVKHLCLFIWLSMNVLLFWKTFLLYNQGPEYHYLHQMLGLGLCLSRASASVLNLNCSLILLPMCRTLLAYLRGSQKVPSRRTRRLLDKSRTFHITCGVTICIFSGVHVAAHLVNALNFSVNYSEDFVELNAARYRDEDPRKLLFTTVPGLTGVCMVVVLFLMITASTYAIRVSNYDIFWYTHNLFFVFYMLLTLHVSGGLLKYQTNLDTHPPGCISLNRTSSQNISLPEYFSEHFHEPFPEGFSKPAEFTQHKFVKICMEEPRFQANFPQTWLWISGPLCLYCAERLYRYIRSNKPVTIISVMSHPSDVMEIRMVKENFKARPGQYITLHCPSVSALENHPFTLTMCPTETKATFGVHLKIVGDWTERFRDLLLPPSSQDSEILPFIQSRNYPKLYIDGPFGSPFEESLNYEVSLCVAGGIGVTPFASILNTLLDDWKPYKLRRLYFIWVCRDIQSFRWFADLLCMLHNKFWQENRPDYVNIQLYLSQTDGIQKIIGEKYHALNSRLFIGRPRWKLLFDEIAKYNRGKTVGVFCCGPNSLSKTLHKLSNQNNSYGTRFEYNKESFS", "sequence (P13498 2-195 partner)": "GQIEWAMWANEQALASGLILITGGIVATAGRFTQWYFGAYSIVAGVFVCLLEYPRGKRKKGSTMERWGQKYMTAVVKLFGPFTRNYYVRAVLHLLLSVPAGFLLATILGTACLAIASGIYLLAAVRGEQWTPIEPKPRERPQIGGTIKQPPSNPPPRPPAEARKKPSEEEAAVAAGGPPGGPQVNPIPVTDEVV", "assay": "Oxygen consumption in Nox4 expressing HEK293 cells"}, "Hippocampal brain slices": {"test_system": "Hippocampal brain slices", "assay": "In vitro stroke model: hippocampal brain slices subjected to hypoxia and glucose deprivation", "settings": "hypoxia and glucose deprivation 5 hours, viability after 24 hours of culture", "method": "(§1) FIG. 4 is a bar chart showing cell viability (in % of basal cell viability) of hippocampal brain slices subjected to hypoxia and starvation for 5 h and then cultured for 24 h in the absence (OGD) or presence of Example 11 at a concentration of 0.3 μM, 3 μM, or 10 μM. Basal=no hypoxia or starvation, cells cultured in the presence of culture medium only. OGD=5 h of hypoxia or starvation, cells cultured in the presence of culture medium only.\nas §1, with “FIG. 5” for “FIG. 4”, “Example 17” for “Example 11”, “of 0.3,” for “of 0.3 μM,”, “3” for “3 μM,”\nHippocampal brain slices and human brain micro-vascular endothelial cells were subjected to hypoxia and glucose deprivation (starvation) for 5 hours and were tested for viability after 24 hours of culture in the presence of Example 11 or Example 17 at different concentrations. Additionally, human brain micro-vascular endothelial cells were subjected to hypoxia and glucose deprivation (starvation) for 6 hours and were tested for viability after 24 hours of culture in the presence of Example 44 at various concentrations."}, "[3]": {"test_system": "rat lens epithelial explants", "assay": "TGFβ-induced lens epithelial to mesenchymal transition (EMT) in rat lens epithelial explants", "settings": "co-treatment with TGFβ, Example 11 2.4 μM, Example 17 0.3 μM; for progression of TGFβ-induced EMT: 5 days culture", "method": "Ocular tissues were collected from postnatal-day-21 albino Wistar rats (Rattus norvegicus) that were sacrificed by asphyxiation and subsequent cervical dislocation.\n(§2) Lens epithelial explants were prepared as previously described (Wang Q, et al., Investigative ophthalmology & visual science. 2010; 51(7):3599-610) and cultured in Medium 199 (M199) with Earle's salts (Life Technologies, USA), supplemented with 50 μg/mL L-glutamine, 50 IU/mL penicillin/50 μg/mL streptomycin (Thermo Scientific, USA), 2.5 μg/mL Amphostat B (Thermo Scientific, USA) and 0.1% bovine serum albumin (BSA) (Sigma, USA). M199 was equilibrated at 37° C., 5% CO2. To induce EMT, recombinant TGF-β2 was added to media in each culture dish at a working concentration of […] (R&D Systems, USA). Prior to the addition of TGF-β2, some explants were pre-treated for 30 minutes with Example 11 or Example 17, at working concentrations of 2.4 μM and 0.3 μM, respectively. The progression of EMT in live cells was observed and captured using phase-contrast microscopy (Olympus CK2, Japan) and a digital camera (Leica DFC-280, Germany). Percentage cell loss quantification was performed using the thresholding function of ImageJ (NIH), such that cells could be distinguished from bare lens capsule."}, "[4]": {"test_system": "rat lens epithelial explants", "assay": "qRT-PCR gene expression analysis in TGFβ-treated rat lens epithelial explants", "settings": "48 hours of culture, Example 11 2.4 μM, Example 17 0.3 μM; for aSMA expression (mRNA): Example 17 at a higher degree than Example 11", "method": "as §2\nQuantitative RT-PCR (qRT-PCR) gene expression analysis was performed as previously described (Shu D, et al., Investigative ophthalmology & visual science. 2017; 58(2):781-96.).\nFor data analysis, the 2^-ΔΔCt method was used to estimate the relative fold change in gene expression. Using the 2^-ΔΔCt method, the gene of interest was quantified relative to, firstly, the housekeeping gene, GAPDH and, secondly, to relative gene expression in untreated explants."}},
  "data": [
    {"smiles": "Cc1ccccc1CCNS(=O)(=O)c1c(C)cccc1Cl", "note": "[Example 11, 2-chloro-6-methyl-N-[2-(2-methylphenyl)ethyl]benzene-1-sulfonamide]", "values": [
      {"measurement": "Activity on Nox1, Nox2, Nox3 and Nox5", "setting": "[1]", "value": "inactive"},
      {"measurement": "Inhibition of oxygen consumption in Nox4 expressing HEK293 cells", "setting": "[2]", "value": "yes"},
      {"measurement": "neuroprotective effect (cell viability)", "setting": "Hippocampal brain slices", "value": "neuroprotective effect"},
      {"measurement": "progression of TGFβ-induced EMT", "setting": "[3]", "value": "a similar effect was obtained"},
      {"measurement": "morphology of remaining cells by day 5", "setting": "[3]", "value": "some of the remaining cells appeared epithelial-like"},
      {"measurement": "TGFβ-driven upregulation of Col1A and Fn (mRNA)", "setting": "[4]", "value": "downregulate the TGFβ-driven upregulation of Col1A and Fn"},
      {"measurement": "aSMA expression (mRNA)", "setting": "[4]", "value": "downregulate aSMA expression"}
    ]},
    {"smiles": "Cc1ccccc1CCNS(=O)(=O)c1c(Cl)cc(Br)cc1Cl", "note": "[Example 17, 4-bromo-2,6-dichloro-N-[2-(2-methylphenyl)ethyl]benzene-1-sulfonamide]", "values": [
      {"measurement": "Activity on Nox1, Nox2, Nox3 and Nox5", "setting": "[1]", "value": "inactive"},
      {"measurement": "Inhibition of oxygen consumption in Nox4 expressing HEK293 cells", "setting": "[2]", "value": "yes"},
      {"measurement": "neuroprotective effect (cell viability)", "setting": "Hippocampal brain slices", "value": "neuroprotective effect"},
      {"measurement": "progression of TGFβ-induced EMT", "setting": "[3]", "value": "appeared to delay the progression of EMT"},
      {"measurement": "morphology of remaining cells by day 5", "setting": "[3]", "value": "some of the remaining cells appeared epithelial-like"},
      {"measurement": "TGFβ-driven upregulation of Col1A and Fn (mRNA)", "setting": "[4]", "value": "downregulate the TGFβ-driven upregulation of Col1A and Fn"},
      {"measurement": "aSMA expression (mRNA)", "setting": "[4]", "value": "downregulate aSMA expression"}
    ]},
    {"smiles": "O=S(=O)(NCCc1ccccc1Cl)c1c(Cl)cc(C2CC2)cc1Cl", "note": "[Example 26, 2,6-dichloro-N-[2-(2-chlorophenyl)ethyl]-4-cyclopropylbenzene-1-sulfonamide]", "values": [
      {"measurement": "Activity on Nox1, Nox2, Nox3 and Nox5", "setting": "[1]", "value": "inactive"},
      {"measurement": "Inhibition of oxygen consumption in Nox4 expressing HEK293 cells", "setting": "[2]", "value": "yes"}
    ]}
  ]
}
